{
  "source": "patent US20220313620A1",
  "about": "“COMPOSITION FOR PREVENTING AND TREATING TAUOPATHIES” (SERVICIO ANDALUZ DE SALUD, priority 2019, published 2022)",
  "key": {"[1]": {"test_system": "Ghrelin", "experiment": "Plasma ghrelin (ELISA) after acute oral gavage in fasted rats", "format": "in vivo", "details": "oral 500 mg/kg, adult male Wistar rats, FIG. 3A / FIG. 4", "protocol": "The protocol was approved by the Ethics Committee for Animal Experiments of the University of Malaga.\nD-Pinitol (3-0-methyl-D-chiro-inositol) was generously provided by EURONUTRA SL (https://www.euronutra.com/, Malaga, Spain), in the form of crystalline fine powder (lot: PPN-M0201). For acute treatments, D-Pinitol was dissolved in water to be administered by gavage (orally) at different concentrations (100 mg/Kg and 500 mg/Kg), drug was administered at a volume of 1 ml/kg.\nAfter 18 hours of fasting, D-Pinitol dissolved in water was administered acutely by gavage (100 mg/kg in a first study, and 500 mg/kg in a subsequent study). After administration, the animals were sacrificed in groups at different times (being time 0 the administration of D-Pinitol). For the first study (100 mg/kg), groups of animals were sacrificed at times: 10, 20, 30, 60, 120, 240 and 360 minutes after administration; for the second study (500 mg/kg), animals were sacrificed at times: 60, 120 and 240 minutes after administration. As a control group, a group was administered only with water (by gavage).\nAnimals were anesthetized with sodium pentobarbital (50 mg/Kg, i.p.), blood, brain and liver samples were collected. Blood was centrifuged (2100 g for 8 min, 4° C.) and the plasma kept for further analysis. Liver and brain samples were flash-frozen in liquid N2, then stored at −80° C. until further analysis.\nThe plasma levels of insulin and ghrelin were determined with an enzyme-linked immunosorbent assay (ELISA) method using commercial kits: EMD Millipore Corporation (Billerica, Mass., USA) Cat. #EZRMI-13K and Cat. #EZRGRT-91K, respectively. Glucagon levels in plasma was determined with a Glucagon Enzyme Immunoassay (EIA) Kit: Cat. #RAB0202 Sigma-Aldrich (Saint Louis, Mo., USA). All serum samples were assayed in duplicate within one assay, and results were expressed in terms of the particular standard hormone."}, "[2]": {"test_system": "glycogen synthase kinase-3β (GSK-3β)", "experiment": "Hippocampal GSK-3β phosphorylation and total level (western blot) after 10 days of oral administration", "format": "in vivo, Wistar rats", "details": "oral 100 mg/Kg for 10 days, hippocampus", "protocol": "(§1) Animal experimental procedures were carried out in accordance with the European Communities directive 2010/63/EU and Spanish legislation (Real Decreto 53/2013). The protocol was approved by the Research and approved by Ethics Committee for Animal Experiments of the University of Malaga, Spain. In accordance with the ARRIVE guidelines, all efforts were made to minimize animal suffering and to reduce the number of animals used per experimental group. Chronic drinking experiments on Wistar rats were performed on 20 male rats. All adult rats, ageing 2 months (≈300 g of body weight), were provided by Charles River Laboratories (Barcelona, Spain). The animals were housed individually under a standard 12 h light-dark cycle in a room with temperature and humidity control. Water and rat chow pellets were provided ad libitum throughout the course of the present study.\n(§2) Caromax®-D-Pinitol (3-O-methyl-d-chiro-inositol, DPIN, 98% purity) and Caromax®-D-Chiro-inositol (cis-1,2,3-trans-3,5,6-cyclohexanehexol, DCI) were provided by Euronutra SL (Málaga, Spain). They were dissolved in water to orally daily administration by drinking and/or gavage at dose of 100 mg/Kg of body weight (BW) in a 1 ml/kg of BW volume to Zucker and Wistar rats for 4 weeks (28 days) and 10 days, respectively (FIG. 1). During the drinking treatments, the concentration of inositols in the water were updated considering the daily increase of BW of the rats and the possible loss of water by evaporation.\n(§3) Brain extract. Frozen brain samples (17 mg per sample) were homogenized in 1 mL of cold RIPA lysis buffer (50 mM Tris-HCl pH 7.4, 150 mM NaCl, 0.5% NaDOC, 1 mM EDTA, 1% Triton, 0.1% SDS, 1 mM Na3VO4, 1 mM NaF) supplemented with a protease cocktail (Hoffmann-Roche). The suspension was incubated for 2 hours at 4° C., followed by centrifugation at 12,000 rpm for 15 minutes at 4° C. The supernatant was transferred to a new clean centrifuge tube, and Bradford colorimetric method was used to determine the concentration of the total protein. The protein extracts were diluted 1:1 in loading buffer (DTT 2X) and heated for 5 minutes at 99° C. before being subjected to electrophoresis.\nWestern Blot Analysis. The tissue protein (10-15 μg) was subjected to electrophoresis on 4-12% Criterion XT Precast Bis-Tris gels (Bio-Rad, USA) for 30 minutes at 80V and 2 h at 150V. Proteins were transferred onto a 0.2 μm nitrocellulose membrane (Bio-Rad, USA) for 1 h at 80V by wet transfer equipment. The membrane was washed twice for 5 min in TBST (10 mM Tris-HCl, 150 mM NaCl, 0.1% Tween 20, pH 7.6) and blocked with 2% Bovine Serum Albumin-Tris Buffered Saline Tween 20 (BSA-TBST) for one hour at room temperature on a shaker platform. Subsequently, the membrane was incubated with respective primary antibodies overnight at 4° C. diluted in 2% BSA-TBST (Table 2 for additional information). The following day, the membrane was washed three times for 5 min with TBST. An appropriate HRP conjugated rabbit/mouse secondary antibody (Promega) was diluted 1:10000 in 2% BSA-TST and incubated with the membrane for 1 h shaking at room temperature. Finally, the membrane was washed as above and exposed to chemiluminescent reagent (Santa Cruz, Biotechnology Inc.) for 5 min. Stripping/reproving steps were used when necessary. Respective membrane bound protein was then visualized by Chemiluminescence (ChemiDoc Imaging System, Bio-Rad). Bands were quantified by densitometric analysis using ImageJ software (Rasband, WS, ImageJ, US National Institutes of Health, Bethesda, Md., USA). Normalization was performed using a reference protein of the same membrane, the α-Adaptin. The results were expressed as the protein/α-Adaptin ratio or phosphorylated/total protein ratio and normalized to the control group (Y axis represents ‘fold mean of the control values’).\nAll data are expressed as mean±SEM. Statistical analysis was undertaken for studies where each group size was of, at least, n=5. […]"}, "[3]": {"test_system": "tau protein", "experiment": "Hippocampal tau phosphorylation and total tau (western blot) after 10 days of oral drinking", "format": "in vivo, Wistar rats", "details": "oral by drinking 100 mg/Kg for 10 days, hippocampus", "protocol": "as §1, §2, §3\nWestern Blot Analysis. The tissue protein (10-15 μg) was subjected to electrophoresis on 4-12% Criterion XT Precast Bis-Tris gels (Bio-Rad, USA) for 30 minutes at 80V and 2 h at 150V. […] Bands were quantified by densitometric analysis using ImageJ software (Rasband, WS, ImageJ, US National Institutes of Health, Bethesda, Md., USA). […] The results were expressed as the protein/α-Adaptin ratio or phosphorylated/total protein ratio and normalized to the control group (Y axis represents ‘fold mean of the control values’).\nAll data are expressed as mean±SEM. […]"}},
  "data": [
    {"smiles": "OC1C(O)C(O)C(O)C(O)C1O", "note": "[DCI, (1R,2R,3S,4S,5S,6S)-cyclohexane-1,2,3,4,5,6-hexol]", "values": [
      {"measurement": "circulating plasma Ghrelin concentration", "setting": "[1]", "value": "enhances"},
      {"measurement": "GSK-3β serine-9 phosphorylation", "setting": "[2]; FIG. 9A.1", "value": "no effect"},
      {"measurement": "GSK-3β tyrosine-216 phosphorylation", "setting": "[2]; FIG. 9A.2", "value": "no effect"},
      {"measurement": "GSK-3β kinase activity (Ser9/Tyr216)", "setting": "[2]; FIG. 9A.3", "value": "neither enhance nor inhibition"},
      {"measurement": "quantity of phospho-tau (AT8: Ser202, Thr205) compared with vehicle group", "setting": "[3]; FIG. 7A.1", "value": "dropped to more than half"},
      {"measurement": "relative protein levels of total tau compared with vehicle group", "setting": "[3]; FIG. 7A.2", "value": "rise"}
    ]}
  ]
}
